Assay results taken from patent US12319676B2, “Substituted amide compounds useful as farnesoid X receptor modulators” (BRISTOL-MYERS SQUIBB COMPANY, priority 2019, dated 2025).

Target: T1, human FXR (Homo sapiens, UniProt Q96RI1)
T1 construct: expressed in transfected cells; host or cells: HEK293 cells stably carrying a 5xGal4 response element-luciferase reporter, transiently transfected with pcDNA3.1-Gal4-FXR
T1 sequence (Q96RI1 262-486 limits assumed): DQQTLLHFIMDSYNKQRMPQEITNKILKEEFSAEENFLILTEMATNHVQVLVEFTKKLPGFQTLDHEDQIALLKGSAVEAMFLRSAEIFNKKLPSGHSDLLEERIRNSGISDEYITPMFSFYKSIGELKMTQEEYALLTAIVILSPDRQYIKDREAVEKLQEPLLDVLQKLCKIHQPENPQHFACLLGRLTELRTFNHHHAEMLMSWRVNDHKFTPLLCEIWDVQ
Assay: transient human FXR/Gal4-luciferase reporter assay
Type: cell-based
Details: Gal4-hFXR fusion construct, luciferase reporter in HEK293 cells; overnight incubation; response as percentage of 8 μM GW-4064 control
Protocol: The exemplified compounds of the present invention were tested in the transient human FXR/Gal4-luciferase reporter assay, and assay results were reported in Table 1 and Examples 1 to 3 together with other analytical data. A Gal4-hFXR fusion construct reporter system was used as the primary assay to characterize compound activity. A construct including 5 copies of the Gal4 promoter response element upstream of a firefly luciferase reporter cDNA was stably expressed in HEK293 cells. This reporter cell line was maintained in Dulbecco's Modified Eagle's medium (DMEM; Gibco) supplemented with 1% penicillin-streptomycin (P/S) solution, 500 μg/mL Zeocin and 10% charcoal/dextran-treated fetal bovine serum (cs-FBS) at 37° C. in a humidified 5% CO2 atmosphere. Another plasmid was constructed in which the human cytomegalovirus promoter in the pcDNA3.1 vector directs the expression of the cDNA encoding a fusion protein comprised of the DNA binding domain from the Gal4 transcription factor fused to the ligand binding domain from human FXR. The day prior to transfection, the reporter cells in culture are detached from the plate with trypsin and plated into a T75 flask at a sufficient density to achieve approximately 90% confluence the next morning. The transfection reagents are prepared by separately diluting 25 μg of the pcDNA3.1-Gal4-FXR plasmid into 1.87 mL of Opti-MEM (Thermo-Fisher), and 40 μL of Lipofectamine 2000 (Thermo-Fisher) into 1.87 mL of Opti-MEM, and then adding the diluted DNA solution into the diluted Lipofectamine 2000 solution and incubating at room temperature for 15-20 minutes. The mixture is further diluted with 10 mL of a solution comprised of DMEM, 10% cs-FBS, and 1% P/S immediately prior to transferring to the cells. The maintenance culture media is aspirated from the cells and the final transfection mixture is added before the cells are incubated overnight at 37° C. in a humidified 5% CO2 atmosphere. This protocol can be scaled up, and the transiently transfected cells can be cryopreserved in an assay-ready format. For compound testing, 100 nL of the compounds (serial dilutions in DMSO) are dispensed with an Echo acoustic dispenser (Labcyte) into the wells of a Corning/Costar clear bottom 384-well white plate. The transfected cells are harvested, counted, and diluted such that 10-25,000 cells in 25 μL are plated into each well of the 384-well compound assay plate. The compound-treated cells are incubated overnight at 37° C. in a humidified 5% CO2 atmosphere. The next morning 25 μL of Steady-Glo (Promega) are added to each well of the plate, the mixture is incubated for 15 min. with shaking, and luminescence is measured on an Envision (Perkin Elmer) plate reader. Background counts from cells treated with DMSO alone are subtracted from all raw counts, and the corrected values are converted to a percentage of the control response attained with 8 μM GW-4064.

Compound | EC50 [nM]
CC(F)(F)c1nc(C23CCC(CN(C(=O)C4CCC(F)(F)CC4)c4ccc(F)c(F)c4)(CC2)CC3)no1 [Example 11, N-((4-(5-(1,1-difluoroethyl)-1,2,4-oxadiazol-3-yl)bicyclo[2.2.2]octan-1-yl)methyl)-N-(3,4-difluorophenyl)-4,4-difluorocyclohexane-1-carboxamide] | 881
CC(F)(F)c1nc(C23CCC(CN(C(=O)C45CC(F)(C4)C5)c4cccc(OC(F)F)c4)(CC2)CC3)no1 [Example 12, N-((4-(5-(1,1-difluoroethyl)-1,2,4-oxadiazol-3-yl)bicyclo[2.2.2]octan-1-yl)methyl)-N-(3-(difluoromethoxy)phenyl)-3-fluorobicyclo[1.1.1]pentane-1-carboxamide] | 73
CC(F)(F)c1nc(C23CCC(CN(c4cccc(OC(F)F)c4)C(=O)[C@H]4C[C@](O)(C(F)(F)F)C4)(CC2)CC3)no1 [Example 13, N-((4-(5-(1,1-difluoroethyl)-1,2,4-oxadiazol-3-yl)bicyclo[2.2.2]octan-1-yl)methyl)-N-(3-(difluoromethoxy)phenyl)-3-hydroxy-3-(trifluoromethyl)cyclobutane-1-carboxamide] | 302
CC(F)(F)c1nc(C23CCC(CN(C(=O)C45CC(F)(C4)C5)c4cccc(C(F)(F)F)c4)(CC2)CC3)no1 [Example 14, N-((4-(5-(1,1-difluoroethyl)-1,2,4-oxadiazol-3-yl)bicyclo[2.2.2]octan-1-yl)methyl)-3-fluoro-N-(3-(trifluoromethyl)phenyl)bicyclo[1.1.1]-pentane-1-carboxamide] | 29
CC(F)(F)c1nc(C23CCC(CN(c4cccc(C(F)(F)F)c4)C(=O)[C@H]4C[C@](O)(C(F)(F)F)C4)(CC2)CC3)no1 [Example 15, N-((4-(5-(1,1-difluoroethyl)-1,2,4-oxadiazol-3-yl)bicyclo[2.2.2]octan-1-yl)methyl)-3-hydroxy-3-(trifluoromethyl)-N-(3-(trifluoromethyl)phenyl)cyclobutane-1-carboxamide] | 176
CC(F)(F)c1nc(C23CCC(CN(C(=O)C4CCC(F)(F)CC4)c4cccc(C(F)(F)F)c4)(CC2)CC3)no1 [Example 16, N-((4-(5-(1,1-difluoroethyl)-1,2,4-oxadiazol-3-yl)bicyclo[2.2.2]octan-1-yl)methyl)-4,4-difluoro-N-(3-(trifluoromethyl)phenyl)cyclohexane-1-carboxamide] | 315
COc1cc(N(CC23CCC(c4noc(C(C)(F)F)n4)(CC2)CC3)C(=O)C23CC(F)(C2)C3)ccn1 [Example 17, N-((4-(5-(1,1-difluoroethyl)-1,2,4-oxadiazol-3-yl)bicyclo[2.2.2]octan-1-yl)methyl)-3-fluoro-N-(2-methoxypyridin-4-yl)bicyclo[1.1.1]pentane-1-carboxamide] | 149
CC(F)(F)c1nc(C23CCC(CN(C(=O)C45CC(F)(C4)C5)c4cccc(S(=O)(=O)NC5CC5)c4)(CC2)CC3)no1 [Example 18, N-(3-(N-cyclopropylsulfamoyl)phenyl)-N-((4-(5-(1,1-difluoroethyl)-1,2,4-oxadiazol-3-yl)bicyclo[2.2.2]octan-1-yl)methyl)-3-fluorobicyclo[1.1.1]pentane-1-carboxamide] | 1560
CC(F)(F)c1nc(C23CCC(CN(c4cccc(S(=O)(=O)NC5CC5)c4)C(=O)[C@H]4C[C@](O)(C(F)(F)F)C4)(CC2)CC3)no1 [Example 19, (1S,3S)-N-(3-(N-cyclopropylsulfamoyl)phenyl)-N-((4-(5-(1,1-difluoroethyl)-1,2,4-oxadiazol-3-yl)bicyclo[2.2.2]octan-1-yl)methyl)-3-hydroxy-3-(trifluoromethyl)cyclobutane-1-carboxamide] | 4000
CC(F)(F)c1nc(C23CCC(CN(C(=O)C4CCC(F)(F)CC4)c4cccc(S(=O)(=O)NC5CC5)c4)(CC2)CC3)no1 [Example 20, N-(3-(N-cyclopropylsulfamoyl)phenyl)-N-((4-(5-(1,1-difluoroethyl)-1,2,4-oxadiazol-3-yl)bicyclo[2.2.2]octan-1-yl)methyl)-4,4-difluorocyclohexane-1-carboxamide] | 4000
CNS(=O)(=O)c1cccc(N(CC23CCC(c4noc(C(C)(F)F)n4)(CC2)CC3)C(=O)C23CC(F)(C2)C3)c1 [Example 21, N-((4-(5-(1,1-difluoroethyl)-1,2,4-oxadiazol-3-yl)bicyclo[2.2.2]octan-1-yl)methyl)-3-fluoro-N-(3-(N-methylsulfamoyl)phenyl)bicyclo[1.1.1]pentane-1-carboxamide] | 4000
CNS(=O)(=O)c1cccc(N(CC23CCC(c4noc(C(C)(F)F)n4)(CC2)CC3)C(=O)[C@H]2C[C@](O)(C(F)(F)F)C2)c1 [Example 22, (1S,3S)-N-((4-(5-(1,1-difluoroethyl)-1,2,4-oxadiazol-3-yl)bicyclo[2.2.2]octan-1-yl)methyl)-3-hydroxy-N-(3-(N-methylsulfamoyl)phenyl)-3-(trifluoromethyl)cyclobutane-1-carboxamide] | 4000
CNS(=O)(=O)c1cccc(N(CC23CCC(c4noc(C(C)(F)F)n4)(CC2)CC3)C(=O)C2CCC(F)(F)CC2)c1 [Example 23, N-((4-(5-(1,1-difluoroethyl)-1,2,4-oxadiazol-3-yl)bicyclo[2.2.2]octan-1-yl)methyl)-4,4-difluoro-N-(3-(N-methylsulfamoyl)phenyl)cyclohexane-1-carboxamide] | 4000
CC(F)(F)c1nc(C23CCC(CN(C(=O)C4CCC(F)(F)CC4)c4cccc(P(C)(C)=O)c4)(CC2)CC3)no1 [Example 24, N-((4-(5-(1,1-difluoroethyl)-1,2,4-oxadiazol-3-yl)bicyclo[2.2.2]octan-1-yl)methyl)-N-(3-(dimethylphosphoryl)phenyl)-4,4-difluorocyclohexane-1-carboxamide] | 4000
CC(F)(F)c1nc(C23CCC(CN(C(=O)C45CC(F)(C4)C5)c4cccc(P(C)(C)=O)c4)(CC2)CC3)no1 [Example 25, N-((4-(5-(1,1-difluoroethyl)-1,2,4-oxadiazol-3-yl)bicyclo[2.2.2]octan-1-yl)methyl)-N-(3-(dimethylphosphoryl)phenyl)-3-fluorobicyclo[1.1.1]pentane-1-carboxamide] | 4000
CC(F)(F)c1nc(C23CCC(CN(c4cccc(P(C)(C)=O)c4)C(=O)[C@H]4C[C@](O)(C(F)(F)F)C4)(CC2)CC3)no1 [Example 26, (1S,3S)-N-((4-(5-(1,1-difluoroethyl)-1,2,4-oxadiazol-3-yl)bicyclo[2.2.2]octan-1-yl)methyl)-N-(3-(dimethylphosphoryl)phenyl)-3-hydroxy-3-(trifluoromethyl)cyclobutane-1-carboxamide] | 4000
COC(=O)c1cccc(N(CC23CCC(c4noc(C(C)(F)F)n4)(CC2)CC3)C(=O)C23CC(F)(C2)C3)c1 [Example 27, Methyl 3-(N-((4-(5-(1,1-difluoroethyl)-1,2,4-oxadiazol-3-yl)bicyclo[2.2.2]octan-1-yl)methyl)-3-fluorobicyclo[1.1.1]pentane-1-carboxamido)benzoate] | 72
CCNC(=O)c1cccc(N(CC23CCC(c4noc(C(C)(F)F)n4)(CC2)CC3)C(=O)C23CC(F)(C2)C3)c1 [Example 28, N-((4-(5-(1,1-difluoroethyl)-1,2,4-oxadiazol-3-yl)bicyclo[2.2.2]octan-1-yl)methyl)-N-(3-(ethylcarbamoyl)phenyl)-3-fluorobicyclo[1.1.1]pentane-1-carboxamide] | 210
CC(F)(F)c1nc(C23CCC(CN(C(=O)C45CC(F)(C4)C5)c4cccc(C(N)=O)c4)(CC2)CC3)no1 [Example 29, N-(3-carbamoylphenyl)-N-((4-(5-(1,1-difluoroethyl)-1,2,4-oxadiazol-3-yl)bicyclo[2.2.2]octan-1-yl)methyl)-3-fluorobicyclo[1.1.1]pentane-1-carboxamide] | 902
